Results reported in patent US8765944B2, “Compounds for the treatment of hepatitis C” (priority 2010, dated 2014).

System: HCV pseudoparticles
Assay: HCV pseudoparticle infection assay (luciferase reporter, Huh7 cells)
Type: cell-based, HCV (genotype 1b E1 and E2 envelope)
Conditions: Hepatitis C virus, genotype 1b, Huh-7, 48 h, HCV pseudoparticles (genotype 1b), luciferase activity 2 days after infection

CCCC1(S(=O)(=O)NC(=O)c2ccc(Nc3nc(NC4(c5ccc(Cl)cc5)CC4)nc(OCC(F)(F)F)n3)cc2)CC1 [Example 1007]
EC50 (class): 0.5 to 100 nM

CCC1(S(=O)(=O)NC(=O)C2(CNC(=O)c3ccc(Nc4nc(NC5(c6ccc(Cl)cc6)CC5)nc(OCC(F)(F)F)n4)cc3)CC2)CC1 [Example 2076]
EC50 (class): 0.5 to 100 nM

O=C(CC(F)(F)F)NCCS(=O)(=O)NC(=O)c1ccc(Nc2nc(NC3(c4ccc(Cl)cc4)CC3)nc(OCC(F)(F)F)n2)cc1 [Example 1040]
EC50 (class): 0.5 to 100 nM

Cc1cccc(C(=O)N2CCN(c3nc(Nc4ccc(C(=O)NS(=O)(=O)C5(CN(C)C)CC5)cc4)nc(OCC(F)(F)F)n3)CC2)c1 [Example 8038]
EC50 (class): 1000 to 5000 nM

O=C(CCCNC(=O)c1ccc(Nc2nc(NC3(c4ccc(Cl)cc4)CC3)nc(OCC(F)(F)F)n2)cc1)N[C@]1(C(=O)NS(=O)(=O)C2(C(F)F)CC2)C[C@H]1C1CC1 [Example 2045]
EC50: 0.72 nM | EC50 (class): 0.5 to 100 nM

NC(=O)C1C[C@@H]2C[C@@H]2N1CC1(S(=O)(=O)NC(=O)c2ccc(Nc3nc(NC4(c5ccc(Cl)cc5)CC4)nc(OCC(F)(F)F)n3)cc2)CC1 (some centres unmarked) [Example 1017]
EC50 (class): 0.5 to 100 nM

CC(C)S(=O)(=O)NC(=O)CCCNC(=O)c1ccc(Nc2nc(NC3(c4ccc(Cl)cc4)CC3)nc(OCC(F)(F)F)n2)cc1 [Example 2023]
EC50 (class): 0.5 to 100 nM

CC(C)S(=O)(=O)NC(=O)c1ccc(Nc2nc(NC3(c4ccc(Cl)cc4)CC3)nc(OCC(F)(F)F)n2)cc1 [Example 1005]
EC50 (class): 0.5 to 100 nM

O=C(NS(=O)(=O)c1ccc(F)cc1)c1ccc(Nc2nc(NC3(c4ccc(Cl)cc4)CC3)nc(OCC(F)(F)F)n2)cc1 [Example 8013]
EC50 (class): 0.5 to 100 nM

CS(=O)(=O)NC(=O)CNC(=O)c1ccc(Nc2nc(NC3(c4ccc(Cl)cc4)CC3)nc(OCC(F)(F)F)n2)cc1 [Example 2009]
EC50: 97 nM | EC50 (class): 0.5 to 100 nM

C[C@@H](NC(=O)CCCNC(=O)c1ccc(Nc2nc(NC3(c4ccc(Cl)cc4)CC3)nc(OCC(F)(F)F)n2)cc1)C(=O)NS(C)(=O)=O [Example 2051, (R)-4-(4-(1-(4-chlorophenyl)cyclopropylamino)-6-(2,2,2-trifluoroethoxy)-1,3,5-triazin-2-ylamino)-N-(4-(1-(methylsulfonamido)-1-oxopropan-2-ylamino)-4-oxobutyl)benzamide]
EC50 (class): 0.5 to 100 nM

COCC1(S(=O)(=O)NC(=O)c2ccc(Nc3nc(NC4(c5ccc(Cl)cc5)CC4)nc(OCC(F)(F)F)n3)cc2)CC1 [Example 1010]
EC50 (class): 0.5 to 100 nM

CC(C)(C)OC(=O)NCCS(=O)(=O)NC(=O)c1ccc(Nc2nc(NC3(c4ccc(Cl)cn4)CC3)nc(OCC(F)(F)F)n2)cc1 [Example 8042]
EC50 (class): 0.5 to 100 nM

CS(=O)(=O)NC(=O)[C@@]1(NC(=O)CCCNC(=O)c2ccc(Nc3nc(NC4(c5ccc(Cl)cc5)CC4)nc(OCC(F)(F)F)n3)cc2)C[C@H]1C1CC1(F)F (some centres unmarked) [Example 2046]
EC50 (class): 0.5 to 100 nM

CC1(C)CCN(CC2(S(=O)(=O)NC(=O)c3ccc(Nc4nc(NC5(c6ccc(Cl)cc6)CC5)nc(OCC(F)(F)F)n4)cc3)CC2)C1 [Example 1023]
EC50 (class): 0.5 to 100 nM

O=C(NCC1(C(=O)NC2(C(=O)NS(=O)(=O)C3CC3)CC2)CC1)c1ccc(Nc2nc(NC3(c4ccc(Cl)cc4)CC3)nc(OCC(F)(F)F)n2)cc1 [Example 2067]
EC50 (class): 0.5 to 100 nM

C=CS(=O)(=O)NC(=O)CCCNC(=O)c1ccc(Nc2nc(NC3(c4ccc(Cl)cc4)CC3)nc(OCC(F)(F)F)n2)cc1 [Example 2017]
EC50: 3.2 nM | EC50 (class): 0.5 to 100 nM

CC(C)(C)OC(=O)N1CCC(C(=O)NCCS(=O)(=O)NC(=O)c2ccc(Nc3nc(NC4(c5ccc(Cl)cc5)CC4)nc(OCC(F)(F)F)n3)cc2)CC1 [Example 1042]
EC50 (class): 0.5 to 100 nM

O=C(CCCNC(=O)c1ccc(Nc2nc(NC3(c4ccc(Cl)cc4)CC3)nc(OCC(F)(F)F)n2)cc1)N[C@]1(C(=O)NS(=O)(=O)C2CCC2)C[C@H]1C1CC1 [Example 2042]
EC50 (class): 0.5 to 100 nM

CC(C)S(=O)(=O)NC(=O)[C@@]1(NC(=O)CCCNC(=O)c2ccc(Nc3nc(NC4(c5ccc(Cl)cc5)CC4)nc(OCC(F)(F)F)n3)cc2)C[C@H]1C1CC1 [Example 2041]
EC50 (class): 0.5 to 100 nM
